We go through 24 molecules from patent publication EP3597653A1, “CYCLIC INHIBITORS OF HEPATITIS B VIRUS” (IRBM S.P.A., priority 2018, dated 2020).

Bounds are passed on as bounds.

The first experiment relates to HBV. Kind of experiment: HBV inhibition assay in HepAD38 cells (extracellular HBV DNA by direct qPCR). The note with it: Hepatitis B virus, 8-point dose-response curve, 96 hours, read-out: HBV inh EC50. It counts as cell-based. From the text:
HepAD38 cell line (Ladner et al., Antimicrob Agents Chemother, 1997, 41, 1715-20) was used for HBV inhibition assays. HepAD38 is a subclone, derived from Hepatoblastoma cell line HepG2 (ATCC® Number: HB-8065™), that expresses HBV genome under the control of a tetracycline-responsive promoter in a TET-OFF system: addition of tetracycline suppresses HBV replication, while its removal switches on the process allowing HBV viral particles release in the cell supernatant. HepAD38 cell line is maintained in DMEM/F12, supplemented with 10% of fetal bovine serum, 1% of glutamine, 1% of penicillin/streptomycin, 0.4 mg/ml G418 and 0,3 ug/ml tetracycline. For the HBV inhibition assay, doxycycline-free medium is used in order to allow virion production.
HBV inhibition activity in vitro was performed in 96 multiwell plates. During the initial (primary) screening compounds were first tested in triplicates at concentrations of 0.1µM, 0.5µM amd 1µM. For selected compounds, an 8-point dose-response curve can be obtained using 1:2 serial dilutions (starting from 2.5 µM, 1.25µM or 0.4 µM, depending on the degree of inhibition observed during the primary screening). From the dose-response curves, half maximal effective concentration (EC50) can be calculated (see also below).
In more detail, compounds - typically dissolved in DMSO stock solutions - are diluted to 2x the final desired concentration in 100 µl of the above medium (without doxycycline) and plated in three replicates in the 96-well plates.
Simultaneously, HepAD38 cells - extensively pre-washed in tetracycline-free medium in order to induce HBV production - are suspended at 2*10^4 cells in 100 µl of tetracycline-free medium and added to each well of the plate, to yield a final assay volume of 200 µl DMSO - used for stock solutions and compounds dilutions - which is always present in the assays at a final concentration of 0.5%.
Plates are then incubated 96 hours at 37°C and then subjected to cell viability assay in order to define compounds cytotoxicity and to extracellular HBV quantification in order to evaluate antiviral activity of compounds. Cytotoxicity is assessed by a commercial fluorescence assay that measures the metabolic activity of cells, directly related to cell viability (Cell Titer Blue, Promega). Anti-HBV activity was evaluated by quantification of extracellular HBV DNA with direct qPCR. In particular, supernatant was collected and centrifuged for cell debris clarification, viral DNA was extracted from virions by addition of lysis buffer (1 mM 1,4-dithiothreitol, 0.2% sodium dodecyl sulphate) and incubated at 95°C for 10 min. Samples were then diluted 1:40 and real time PCR amplification was performed with SYBR green assay (Power SYBR™ Green PCR Master Mix-Thermo Fisher Scientific) and specific HBV primer (HBV-DF:5'-[…]-3' (SEQ ID No. 1), HBV-DR:5'-[…]-3' (SEQ ID No. 2)).
All HBV inhibition or antiviral activity data are typically reported in percent (%) relative to a non-treated reference sample. Excel and Graphpad Prism programs are typically used for data elaboration and EC50 calculation.
(In general: Real-time PCR tracks product formation cycle by cycle.)
`O=C(Nc1cc(F)c(F)c(F)c1)c1ccc2c(c1)S(=O)(=O)NC(C1CCNCC1)N2` (stereo not drawn) [Example E32, 3-(piperidin-4-yl)-N-(3,4,5-trifluorophenyl)-3,4-dihydro-2H-benzo[e][1,2,4]thiadiazine-7-carboxamide 1,1-dioxide]: the EC50 (in general, the concentration giving half of the maximal effect) was less than 1 µM.
Regarding `O=C(Nc1cc(F)c(F)c(F)c1)c1ccc2c(c1)S(=O)(=O)NC(c1c(F)cccc1F)N2` (stereo not drawn) [Example E35, 3-(2,6-difluorophenyl)-N-(3,4,5-trifluorophenyl)-3,4-dihydro-2H-benzo[e][1,2,4]thiadiazine-7-carboxamide 1,1-dioxide], the concentration for a half-maximal effect (EC50) was less than 1 µM.
Take `Cn1cncc1C1Nc2ccc(C(=O)Nc3cc(F)c(F)c(F)c3)cc2S(=O)(=O)N1` (stereo not drawn) [Example E37, 3-(1-methyl-1H-imidazol-5-yl)-N-(3,4,5-trifluorophenyl)-3,4-dihydro-2H-benzo[e][1,2,4]thiadiazine-7-carboxamide 1,1-dioxide]: the EC50 is less than 1 µM.

Staying with this experiment, now noted: Hepatitis B virus, compound at 0.5 µM, 96 hours, relative to non-treated reference, read-out: Anti HBV Activity (conc µM).
For the molecule `C[C@H](O)C1Nc2ccc(C(=O)Nc3cc(F)c(F)c(F)c3)cc2S(=O)(=O)N1` (stereo partly drawn) [Example E23, 3-((S)-1-hydroxyethyl)-N-(3,4,5-trifluorophenyl)-3,4-dihydro-2H-benzo[e][1,2,4]thiadiazine-7-carboxamide 1,1-dioxide], the inhibition at 0.5 µM is more than 50%.
For `C[C@@H](O)C1Nc2ccc(C(=O)Nc3cc(F)c(F)c(F)c3)cc2S(=O)(=O)N1` (stereo partly drawn) [Example E24, 3-((R)-1-hydroxyethyl)-N-(3,4,5-trifluorophenyl)-3,4-dihydro-2H-benzo[e][1,2,4]thiadiazine-7-carboxamide 1,1-dioxide], the inhibition at 0.5 µM was more than 50%.
On to `C[C@H](O)C1=NS(=O)(=O)c2cc(C(=O)Nc3cc(F)c(F)c(F)c3)ccc2N1` [Example E25, (S)-3-(1-hydroxyethyl)-N-(3,4,5-trifluorophenyl)-4H-benzo[e][1,2,4]thiadiazine-7-carboxamide1,1-dioxide], for which the inhibition at 0.5 µM is less than 50%.
In the case of `O=C(Nc1cc(F)c(F)c(F)c1)c1ccc2c(c1)S(=O)(=O)NC([C@@H](O)CO)N2` (stereo partly drawn) [Example E26, 3-((R)-1,2-dihydroxyethyl)-N-(3,4,5-trifluorophenyl)-3,4-dihydro-2H-benzo[e][1,2,4]thiadiazine-7-carboxamide 1,1-dioxide], the inhibition at 0.5 µM is more than 50%.
With `CC1(C)Nc2ccc(C(=O)Nc3cc(F)c(F)c(F)c3)cc2S(=O)(=O)N1` [Example E27, 3,3-dimethyl-N-(3,4,5-trifluorophenyl)-3,4-dihydro-2H-benzo[e][1,2,4]thiadiazine-7-carboxamide 1,1-dioxide], the inhibition at 0.5 µM is more than 50%.
For `O=C(Nc1cc(F)c(F)c(F)c1)c1ccc2c(c1)S(=O)(=O)NC(CO)N2` (stereo not drawn) [Example E28, 3-(hydroxymethyl)-N-(3,4,5-trifluorophenyl)-3,4-dihydro-2H-benzo[e][1,2,4]thiadiazine-7-carboxamide 1,1-dioxide], the inhibition at 0.5 µM is more than 50%.
Regarding `CN1C(C2CCNCC2)Nc2ccc(C(=O)Nc3cc(F)c(F)c(F)c3)cc2S1(=O)=O` (stereo not drawn) [Example E33, 2-methyl-3-(piperidin-4-yl)-N-(3,4,5-trifluorophenyl)-3,4-dihydro-2H-benzo[e][1,2,4]thiadiazine-7-carboxamide 1,1-dioxide], the inhibition at 0.5 µM is less than 50%.

The experiment is the same for the next values; noted with them: Hepatitis B virus, compound at 1 µM, 96 hours, relative to non-treated reference, read-out: Anti HBV Activity (conc µM).
Consider `NCC1Nc2ccc(C(=O)Nc3cc(F)c(F)c(F)c3)cc2S(=O)(=O)N1` (stereo not drawn) [Example E29, 3-(aminomethyl)-N-(3,4,5-trifluorophenyl)-3,4-dihydro-2H-benzo[e][1,2,4]thiadiazine-7-carboxamide 1,1-dioxide], for which the inhibition at 1 µM is more than 50%.
For the molecule `CC(=O)NCC1Nc2ccc(C(=O)Nc3cc(F)c(F)c(F)c3)cc2S(=O)(=O)N1` (stereo not drawn) [Example E30, 3-(acetamidomethyl)-N-(3,4,5-trifluorophenyl)-3,4-dihydro-2H-benzo[e][1,2,4]thiadiazine-7-carboxamide 1,1-dioxide], the inhibition at 1 µM was more than 50%.
As for `CC(C)(C)OC(=O)N1CCC(C2Nc3ccc(C(=O)Nc4cc(F)c(F)c(F)c4)cc3S(=O)(=O)N2)CC1` (stereo not drawn) [Example E31, tert-butyl 4-(1,1-dioxido-7-((3,4,5-trifluorophenyl)carbamoyl)-3,4-dihydro-2H-benzo[e] [1,2,4]thiadiazin-3-yl)piperidine-1-carboxylate], the inhibition at 1 µM is more than 50%.
Consider `O=C(Nc1cc(F)c(F)c(F)c1)c1cc2c(cc1Cl)NC1(CCC1)NS2(=O)=O` [Example E34, 6-chloro-N-(3,4,5-trifluorophenyl)-2H,4H-spiro[benzo[e] [1,2,4]thiadiazine-3,1'-cyclobutane]-7-carboxamide 1,1-dioxide], for which the inhibition at 1 µM was less than 50%.
As for `O=C(Nc1cc(F)c(F)c(F)c1)c1cc2c(cc1Cl)NC(c1nccs1)NS2(=O)=O` (stereo not drawn) [Example E36, 6-chloro-3-(thiazol-2-yl)-N-(3,4,5-trifluorophenyl)-3,4-dihydro-2H-benzo[e][1,2,4]thiadiazine-7-carboxamide 1,1-dioxide], the inhibition at 1 µM is more than 50%.
As for `Cc1nc(C)c(C2Nc3ccc(C(=O)Nc4ccc(F)c(F)c4)cc3S(=O)(=O)N2)o1` (stereo not drawn) [Example E38, N-(3,4-difluorophenyl)-3-(2,4-dimethyloxazol-5-yl)-3,4-dihydro-2H-benzo[e][1,2,4]thiadiazine-7-carboxamide 1,1-dioxide], the inhibition at 1 µM was more than 50%.
Turning to `CC1(c2ccncc2)Nc2ccc(C(=O)Nc3cc(F)c(F)c(F)c3)cc2S(=O)(=O)N1` (stereo not drawn) [Example E39, 3-methyl-3-(pyridin-4-yl)-N-(3,4,5-trifluorophenyl)-3,4-dihydro-2H-benzo[e][1,2,4]thiadiazine-7-carboxamide 1,1-dioxide], the inhibition at 1 µM is more than 50%.
Turning to `O=C(Nc1cc(F)c(F)c(F)c1)c1ccc2c(c1)S(=O)(=O)NC(c1cncs1)N2` (stereo not drawn) [Example E40, 3-(thiazol-5-yl)-N-(3,4,5-trifluorophenyl)-3,4-dihydro-2H-benzo[e][1,2,4]thiadiazine-7-carboxamide 1,1-dioxide], the inhibition at 1 µM is more than 50%.
The same measure, in the same setting: the same measure for `O=C(Nc1cc(F)c(F)c(F)c1)c1ccc2c(c1)S(=O)(=O)NC(c1cscn1)N2` (stereo not drawn) [Example E41, 3-(thiazol-4-yl)-N-(3,4,5-trifluorophenyl)-3,4-dihydro-2H-benzo[e][1,2,4]thiadiazine-7-carboxamide 1,1-dioxide]: more than 50%; for `O=C(Nc1cc(F)c(F)c(F)c1)c1ccc2c(c1)S(=O)(=O)NC(c1ccc(C(F)(F)F)nc1)N2` (stereo not drawn) [Example E42, 3-(6-(trifluoromethyl)pyridin-3-yl)-N-(3,4,5-trifluorophenyl)-3,4-dihydro-2H-benzo[e][1,2,4]thiadiazine-7-carboxamide 1,1-dioxide]: more than 50%; for `O=C(Nc1cc(F)c(F)c(F)c1)c1ccc2c(c1)S(=O)(=O)NC(c1cccs1)N2` (stereo not drawn) [Example E43, 3-(thiophen-2-yl)-N-(3,4,5-trifluorophenyl)-3,4-dihydro-2H-benzo[e][1,2,4]thiadiazine-7-carboxamide 1,1-dioxide]: more than 50%.
With `O=C(Nc1cc(F)c(F)c(F)c1)c1ccc2c(c1)S(=O)(=O)NC(c1ccccn1)N2` (stereo not drawn) [Example E44, 3-(pyridin-2-yl)-N-(3,4,5-trifluorophenyl)-3,4-dihydro-2H-benzo[e][1,2,4]thiadiazine-7-carboxamide 1,1-dioxide], the inhibition at 1 µM is more than 50%.
In the case of `O=C(Nc1cc(F)c(F)c(F)c1)c1ccc2c(c1)S(=O)(=O)NC(c1cnns1)N2` (stereo not drawn) [Example E45, 3-(1,2,3-thiadiazol-5-yl)-N-(3,4,5-trifluorophenyl)-3,4-dihydro-2H-benzo[e][1,2,4]thiadiazine-7-carboxamide 1,1-dioxide], the inhibition at 1 µM was more than 50%.
On to `O=C(Nc1cc(F)c(F)c(F)c1)c1ccc2c(c1)S(=O)(=O)NC(c1ccn[nH]1)N2` (stereo not drawn) [Example E46, 3-(1H-pyrazol-5-yl)-N-(3,4,5-trifluorophenyl)-3,4-dihydro-2H-benzo[e][1,2,4]thiadiazine-7-carboxamide 1,1-dioxide], for which the inhibition at 1 µM is more than 50%.
